From publication PMC3293837, “Biophysical Property and Broad Anti-HIV Activity of Albuvirtide, a 3-Maleimimidopropionic Acid-Modified Peptide Fusion Inhibitor” (PLoS ONE, 2012)

What was measured:
[1] = tested on: SF162.LS pseudovirus (subtype B); assay type: cell-based, HIV-1; details: R5, TZM-bl, 48 h, triplicate, mean ± SD of three independent experiments
Source text: (§1) A panel of plasmids encoding HIV-1 Envs were obtained through the AIDS Research and Reference Reagent Program (ARRRP), Division of AIDS, NIAID, NIH, including subtype A Env clones pSVIII-92RW020.5 and 92UG037.8 from Dr. B.H. Hahn; subtype B Env clones SC422661.8, TRO.11 and AC10.0.29 from Drs. D. Montefiori, F. Gao and M. Li, pRHPA4259.7 and pREJO4541.67 from Drs. B.H. Hahn and J.F. Salazar-Gonzalez, and pCAAN5342.A2 from Drs. B.H. Hahn and D.L. Kothe; subtype C Env clones Du172.17 and Du422.1 from Drs. D. Montefiori, F. Gao, S. Abdool Karim and G. Ramjee, CAP45.2.00.G3 from Drs. L. Morris, K. Mlisana and D. Montefiori, ZM197M.PB7 from Drs. B.H. Hahn, Y. Li and J.F. Salazar-Gonzalez, ZM109F.PB4 from Drs. E. Hunter and C. Derdeyn. Six CRF07_BC Env clones (CH064.20, CH070.1, CH091.9, CH110.2, CH119.10 and CH120.6) were generous gifts by Dr. Y. Shao in the Chinese Center for Disease Control and Prevention, Beijing, China. A panel of Env clones derived from subtype B′ (B01, B02, B04, and 43-22), CRF01_AE (SHX335.24, YN192.31, AE01, AE03, GX2010.36, GX11.13, GX2010.36H, BJ5.11), and CRF07_BC (BC02, BC03, BC05, BC07, BC14, SC19-15, BJ22-5, YN148R-9, XJ50-6, HB5-3) were kindly provided by Dr. Y. Wang from the National Institute for the Control of Pharmaceutical and Biological Products, Beijing, China.

[2] = tested on: B02 pseudovirus (subtype B′); assay type: cell-based, HIV-1; details: R5, TZM-bl, 48 h, triplicate, mean ± SD of at least three independent experiments
Source text: as §1

[3] = tested on: BC02 pseudovirus (CRF07_BC); assay type: cell-based, HIV-1; details: R5, TZM-bl, 48 h, triplicate, mean ± SD of at least three independent experiments
Source text: as §1

[4] = tested on: CAAN5342 pseudovirus (subtype B); assay type: cell-based, HIV-1; details: R5, TZM-bl, 48 h, triplicate, mean ± SD of three independent experiments
Source text: as §1

[5] = tested on: B04 pseudovirus (subtype B′); assay type: cell-based, HIV-1; details: R5, TZM-bl, 48 h, triplicate, mean ± SD of at least three independent experiments
Source text: as §1

[6] = tested on: HB5-3 pseudovirus (CRF07_BC); assay type: cell-based, HIV-1; details: HB5-3, CRF07_BC, R5; TZM-bl, 48 h; triplicate, mean ± SD of at least three independent experiments
Source text: as §1

[7] = tested on: CH091 pseudovirus (CRF07_BC); assay type: cell-based, HIV-1; details: R5, TZM-bl, 48 h, triplicate, mean ± SD of at least three independent experiments
Source text: as §1

[8] = tested on: BC05 pseudovirus (CRF07_BC); assay type: cell-based, HIV-1; details: R5, TZM-bl, 48 h, triplicate, mean ± SD of at least three independent experiments
Source text: as §1

[9] = tested on: CH070 pseudovirus (CRF07_BC); assay type: cell-based, HIV-1; details: R5, TZM-bl, 48 h, triplicate, mean ± SD of at least three independent experiments
Source text: as §1

[10] = tested on: Du172.17 pseudovirus (subtype C); assay type: cell-based, HIV-1; details: Du172.17, subtype C, R5; TZM-bl, 48 h; triplicate, mean ± SD of three independent experiments
Source text: as §1

[11] = tested on: CH064 pseudovirus (CRF07_BC); assay type: cell-based, HIV-1; details: R5, TZM-bl, 48 h, triplicate, mean ± SD of at least three independent experiments
Source text: as §1

[12] = tested on: SC19-15 pseudovirus (CRF07_BC); assay type: cell-based, HIV-1; details: SC19-15, CRF07_BC, R5; TZM-bl, 48 h; triplicate, mean ± SD of at least three independent experiments
Source text: as §1

[13] = tested on: ZM197M.PB7 pseudovirus (subtype C); assay type: cell-based, HIV-1; details: R5, TZM-bl, 48 h, triplicate, mean ± SD of three independent experiments
Source text: as §1

[14] = tested on: GX2010.36H pseudovirus (CRF01_AE); assay type: cell-based, HIV-1; details: R5, TZM-bl, 48 h, triplicate, mean ± SD of at least three independent experiments
Source text: as §1

[15] = tested on: BC14 pseudovirus (CRF07_BC); assay type: cell-based, HIV-1; details: R5, TZM-bl, 48 h, triplicate, mean ± SD of at least three independent experiments
Source text: as §1

[16] = tested on: Du422.1 pseudovirus (subtype C); assay type: cell-based, HIV-1; details: Du422.1, subtype C, R5; TZM-bl, 48 h; triplicate, mean ± SD of three independent experiments
Source text: as §1

[17] = tested on: ZM109F.PB4 pseudovirus (subtype C); assay type: cell-based, HIV-1; details: R5, TZM-bl, 48 h, triplicate, mean ± SD of three independent experiments
Source text: as §1

[18] = tested on: N36 (NHR target sequence); assay: CD spectroscopy (C-peptide alone or with N36); assay type: physicochemical, HIV-1; details: PBS pH 7.2, 10 µM (methods), room temperature
Protocol: CD spectroscopy was performed as previously described, [26]. […] The isolated N- and C-peptides were also tested. […] Data were averaged over three accumulations.

[19] = tested on: N36 (NHR target sequence); details: complex with N36; CD at 222 nm, 20–90°C, 1°C per min, 1 µM in PBS buffer
Protocol: CD spectroscopy was performed as previously described, [26]. […] The final peptide concentration was 10 µM in PBS buffer (pH 7.2). The isolated N- and C-peptides were also tested. The CD spectra of these individual peptides and peptide mixtures were acquired on MOS-450 spectropolarimeter (Bio-Logic, France) using a 1 nm bandwidth with a 1 nm step resolution from 190 to 260 nm at room temperature. The spectra were corrected by subtraction of a blank corresponding to the solvent. Data were averaged over three accumulations. […] Tm value was detected at protein concentration of 1 µM in PBS buffer.

[20] = tested on: HIV-1NL4-3 D36G pseudovirus; assay type: cell-based
Protocol: (§2) HIV-1 pseudoviruses were generated as described previously [32], [55]–[56]. Briefly, 293T cells (5×10^6 cells in 15 ml of growth medium in a T-75 culture flask) were cotransfected with 10 µg of an Env-expressing plasmid and 20 µg of a backbone plasmid pSG3deltaEnv that encodes Env-defective, luciferase-expressing HIV-1 genome using Lipofectamine 2000 reagent (Invitrogen). Pseudovirus-containing culture supernatants were harvested 48 hours after transfection and filtered by 0.45-mm pore size, and stored at −80°C in 1-ml aliquots until use. The 50% tissue culture infectious dose (TCID50) of a single thawed aliquot of each pseudovirus batch was determined in TZM-bl cells. […] Briefly, the peptides were prepared with ten series dilutions in a 3-fold stepwise manner and mixed with 100 TCID50 viruses and incubated 1 hour at room temperature. The mixture was added to TZM-bl cells (10^4/well) and incubation at 37°C for 48 hours. Luciferase activity was measured using luciferase assay regents (Promega, Medison, WI) and a Luminescence Counter (Promega) according to the manufacture's instructions.

[21] = tested on: HIV-1NL4-3 V38A pseudovirus; assay type: cell-based
Protocol: as §2

enfuvirtide
IC50 [1]: 43.5 ± 9.16 nM
IC50 [2]: 8.59 ± 0.8 nM
IC50 [3]: 2.6 ± 0.48 nM
IC50 [4]: 723 ± 53.5 nM
IC50 [5]: 7.8 ± 0.43 nM
IC50 [6]: 23.1 ± 2.55 nM
IC50 [7]: 65.9 ± 14.3 nM
IC50 [8]: 4.39 ± 0.25 nM
IC50 [9]: 136 ± 36.4 nM
IC50 [10]: 11.6 ± 5.29 nM
IC50 [11]: 61.7 ± 12.5 nM
IC50 [12]: 7.61 ± 0.97 nM
IC50 [13]: 63.3 ± 17 nM
IC50 [14]: 25.9 ± 0.28 nM
IC50 [15]: 109 ± 52.6 nM
IC50 [16]: 28.4 ± 5.14 nM
IC50 [17]: 76.4 ± 2.69 nM
CD spectrum / α-helicity with N36 ([18]; equimolar N36, 37°C 30 min, 222 nm): could not form a typical α-helical complex with N36
CD spectrum / α-helical conformation of C-peptide alone ([18]; peptide alone, 190-260 nm): minimum α-helical conformation
Tm of C-peptide/N36 complex [19]: undetectable
increase in sensitivity of D36G mutant ([20]; D36G relative to WT HIV-1NL4-3): 8.3 fold
IC50 ([20]; HIV-1NL4-3 D36G, TZM-bl, 48 h, mean ± SD of three independent experiments): 7.5 ± 1.3 nM
IC50 ([21]; HIV-1NL4-3 V38A, TZM-bl, 48 h, mean ± SD of three independent experiments): 1260 ± 182 nM
resistance change with V38A (in words) ([21]; V38A single mutation): high-fold resistance changes
